In US20240150368A1, “ULK INHIBITORS AND METHODS OF USE THEREOF” (Deciphera Pharmaceuticals, LLC, priority 2022, published 2024) one finds IC50 data, which are given here for five compounds.

The test system of this assay is ULK kinase substrate ATG13 (pS318-ATG13) in T24 cells. The assay can be described thus: pATG13 levels of mutant HRas T24 cells after treatment with ULK inhibitors in combination with trametinib (ELISA). Particulars: in combination with trametinib 250 nM. The format is cell-based, human. The method, then: pATG13 Levels of Mutant HRas T24 Cells after Treatment with ULK Inhibitors in Combination with Trametinib
T24 human urinary bladder cancer cells (25000 cells/well) were added to a 96-well tissue-culture treated plate in 100 μL of pre-warmed DMEM medium supplemented with 10% characterized fetal bovine serum (Invitrogen, Carlsbad, CA), 100 units/mL penicillin G, and 100 μg/mL streptomycin and allowed to grow overnight at 37° C., 5% CO2, and 95% humidity. The following day, 100 μL of media containing trametinib or DMSO as a control was added to wells. The final concentration of trametinib in wells was 250 nM. A dose response of a test compound (0.5 μL per well) was added. DMSO (0.5 μL) was added to control wells. The plate was briefly shaken to mix wells and then incubated at 37° C. overnight. The next day, the media was aspirated and cells were washed with Dulbecco's Phosphate Buffered Saline (Gibco). Cells were lysed using MPER lysis buffer (Pierce, Rockford, IL) containing Halt Phosphatase and Protease Inhibitors (Pierce, Rockford, IL) and Phosphatase inhibitor cocktail 2 (Sigma, St. Louis, MO) at 4° C. for 10 min with shaking.
Cellular levels of phospho-Serine 318 ATG13 (pATG13) were measured via an ELISA method. Total ATG13 Antibody (Cell Signaling Cat #13273) was used to coat the wells. The plate was incubated at 4° C. overnight and washed with ELISA wash buffer (Biolegend Cat #421601). The wells were then blocked with assay diluent (Biolegend Cat #421203) for 1 h at rt. Plate wells were washed with ELISA wash buffer. Cell lysate was added to wells and incubated at rt for 2 h. Plate wells were washed with ELISA wash buffer. Biotinylated pS318-ATG13 antibody (Rockland Immunochemicals Cat #600-401-C49) was diluted in assay diluent and added to each well and incubated at rt for 1 h. Plate wells were washed with ELISA wash buffer. Streptavidin linked to horseradish peroxidase (Thermo Fisher Cat #21140) was diluted in assay diluent and added to each well and incubated at rt for 1 h. Plate wells were washed with ELISA wash buffer. High sensitivity TMB substrate (Biolegend Cat #421101) was added to each well and incubated at rt for 20 min. The reaction was stopped with 2.0N sulfuric acid. The plate was analyzed at on a plate reader measuring absorbance at 450 nm and 540 nm (background). Signal was calculated by first subtracting the background absorbance at 540 nm from the absorbance at 450 nm for each well. Next, the background corrected absorbance at 450 nm from blank wells was subtracted from test wells. Data was compared to control wells to determine % ATG13 phosphorylation. GraphPad Prism was used to calculate IC50 values.
A general note: In an ELISA, binding on a coated surface is turned into a signal by an enzyme label.

For orientation: IC50 means the concentration at which inhibition is half-maximal. `CC/C(Nc1cnn(C2CCN(C(C)C)CC2)c1)=C1/C(=O)Nc2ccc(C(=O)N(C)CC(F)(F)F)cc21` [Example 7]: the IC50 is not above 100 nM. For `CC/C(Nc1cnn(C2CCN(C(C)C)CC2)c1)=C1/C(=O)Nc2ccc(C(=O)NCC(F)(F)F)cc21` [Example 8] the value was not above 100 nM; for `CC/C(Nc1cnn(C2CCN(C(C)C)CC2)c1)=C1/C(=O)Nc2ccc(C(=O)N(C)CCOC)cc21` [Example 9], 100 to 300 nM; for `CC/C(Nc1cnn(C2CCN(C(C)C)CC2)c1)=C1/C(=O)Nc2ccc(C(=O)NCC(C)C)cc21` [Example 16], not above 100 nM. For `CC/C(Nc1cnn(C2CCN(C(C)C)CC2)c1)=C1/C(=O)Nc2ccc(C(=O)NCCOC)cc21` [Example 98] the value was not above 100 nM.
